Experiment: Evaluation of conversion rate to active form in buffer solution (Experimental Example 1)
Assay type: physicochemical
Details: for Production rate of Alvocidib / Residual rate: 37° C., 25 umol/L in buffer solution; for Stability in buffer solution at pH 5: pH 5, 37° C., up to 2 or 3 hours; for Conversion to Alvocidib at pH 7.4: pH 7.4, 37° C., up to 3 hours
Method in brief: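 Stability across pH: 25 umol/L, 37° C, 50 mM citrate/phosphate, pH 5.0–7.4. Sampling at 0, 0.5, 1, 2, 3 h; HPLC determined loss of compound and Alvocidib generated.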

CN1CC[C@H](c2c(OC(=O)N(C)C[C@@H]3CCCCN3)cc(O)c3c(=O)cc(-c4ccccc4Cl)oc23)[C@H](O)C1 [Example 3, 2-(2-chlorophenyl)-5-hydroxy-8-[(3S,4R)-3-hydroxy-1-methylpiperidin-4-yl]-4-oxo-4H-1-benzopyran-7-yl methyl{[(2S)-piperidin-2-yl]methyl}carbamate]
Production rate of Alvocidib (pH5.0, 0 hr): 0.2%
Residual rate (pH5.0, 0 hr): 99.8%
Stability in buffer solution at pH 5: stable
Production rate of Alvocidib (pH5.0, 0.5 hr): 0.9%
Residual rate (pH5.0, 0.5 hr): 99.1%
Production rate of Alvocidib (pH5.0, 1 hr): 1.3%
Residual rate (pH5.0, 1 hr): 98.7%
Production rate of Alvocidib (pH5.0, 2 hr): 2.2%
Residual rate (pH5.0, 2 hr): 97.8%
Production rate of Alvocidib (pH5.0, 3 hr): 3.1%
Residual rate (pH5.0, 3 hr): 96.9%
Production rate of Alvocidib (pH5.5, 0 hr): 0.3%
Residual rate (pH5.5, 0 hr): 99.7%
Production rate of Alvocidib (pH5.5, 0.5 hr): 1.8%
Residual rate (pH5.5, 0.5 hr): 98.2%
Production rate of Alvocidib (pH5.5, 1 hr): 2.7%
Residual rate (pH5.5, 1 hr): 97.3%
Production rate of Alvocidib (pH5.5, 2 hr): 4.7%
Residual rate (pH5.5, 2 hr): 95.3%
Production rate of Alvocidib (pH5.5, 3 hr): 6.5%
Residual rate (pH5.5, 3 hr): 93.5%
Production rate of Alvocidib (pH6.0, 0 hr): 0.3%
Residual rate (pH6.0, 0 hr): 99.7%
Production rate of Alvocidib (pH6.0, 0.5 hr): 4.5%
Residual rate (pH6.0, 0.5 hr): 95.5%
Production rate of Alvocidib (pH6.0, 1 hr): 7.6%
Residual rate (pH6.0, 1 hr): 92.2%
Production rate of Alvocidib (pH6.0, 2 hr): 14.1%
Residual rate (pH6.0, 2 hr): 85.3%
Production rate of Alvocidib (pH6.0, 3 hr): 19.8%
Residual rate (pH6.0, 3 hr): 79.4%
Production rate of Alvocidib (pH6.5, 0 hr): 0.3%
Residual rate (pH6.5, 0 hr): 99.7%
Production rate of Alvocidib (pH6.5, 0.5 hr): 10.6%
Residual rate (pH6.5, 0.5 hr): 88.9%
Production rate of Alvocidib (pH6.5, 1 hr): 18.3%
Residual rate (pH6.5, 1 hr): 80.9%
Production rate of Alvocidib (pH6.5, 2 hr): 33.5%
Residual rate (pH6.5, 2 hr): 65.3%
Production rate of Alvocidib (pH6.5, 3 hr): 44.6%
Residual rate (pH6.5, 3 hr): 53.9%
Production rate of Alvocidib (pH7.0, 0 hr): 0.6%
Residual rate (pH7.0, 0 hr): 99.4%
Production rate of Alvocidib (pH7.0, 0.5 hr): 26.8%
Residual rate (pH7.0, 0.5 hr): 72.2%
Production rate of Alvocidib (pH7.0, 1 hr): 43.2%
Residual rate (pH7.0, 1 hr): 55.3%
Production rate of Alvocidib (pH7.0, 2 hr): 65.2%
Residual rate (pH7.0, 2 hr): 20.2%
Production rate of Alvocidib (pH7.0, 3 hr): 74.5%
Residual rate (pH7.0, 3 hr): 8.0%
Production rate of Alvocidib (pH7.4, 0 hr): 0.9%
Residual rate (pH7.4, 0 hr): 99.1%
Conversion to Alvocidib at pH 7.4: rapidly converted to Alvocidib
Production rate of Alvocidib (pH7.4, 0.5 hr): 49.0%
Residual rate (pH7.4, 0.5 hr): 49.4%
Production rate of Alvocidib (pH7.4, 1 hr): 67.8%
Residual rate (pH7.4, 1 hr): 17.0%
Production rate of Alvocidib (pH7.4, 2 hr): 80.4%
Residual rate (pH7.4, 2 hr): 0.0%
Production rate of Alvocidib (pH7.4, 3 hr): 82.5%
Residual rate (pH7.4, 3 hr): 0.0%

CN1CC[C@H](c2c(OC(=O)N(C)C[C@H]3CCCCN3)cc(O)c3c(=O)cc(-c4ccccc4Cl)oc23)[C@H](O)C1 [Example 4, 2-(2-chlorophenyl)-5-hydroxy-8-[(3S,4R)-3-hydroxy-1-methylpiperidin-4-yl]-4-oxo-4H-1-benzopyran-7-yl methyl{[(2R)-piperidin-2-yl]methyl}carbamate]
Production rate of Alvocidib (pH5.0, 0 hr): 0.5%
Residual rate (pH5.0, 0 hr): 99.3%
Stability in buffer solution at pH 5: stable
Production rate of Alvocidib (pH5.0, 0.5 hr): 0.8%
Residual rate (pH5.0, 0.5 hr): 98.5%
Production rate of Alvocidib (pH5.0, 1 hr): 1.1%
Residual rate (pH5.0, 1 hr): 98.0%
Production rate of Alvocidib (pH5.0, 2 hr): 1.7%
Residual rate (pH5.0, 2 hr): 96.8%
Production rate of Alvocidib (pH5.0, 3 hr): 2.3%
Residual rate (pH5.0, 3 hr): 95.6%
Production rate of Alvocidib (pH5.5, 0 hr): 0.4%
Residual rate (pH5.5, 0 hr): 99.2%
Production rate of Alvocidib (pH5.5, 0.5 hr): 1.5%
Residual rate (pH5.5, 0.5 hr): 97.1%
Production rate of Alvocidib (pH5.5, 1 hr): 2.2%
Residual rate (pH5.5, 1 hr): 95.5%
Production rate of Alvocidib (pH5.5, 2 hr): 4.0%
Residual rate (pH5.5, 2 hr): 91.4%
Production rate of Alvocidib (pH5.5, 3 hr): 5.5%
Residual rate (pH5.5, 3 hr): 87.9%
Production rate of Alvocidib (pH6.0, 0 hr): 0.4%
Residual rate (pH6.0, 0 hr): 99.3%
Production rate of Alvocidib (pH6.0, 0.5 hr): 3.7%
Residual rate (pH6.0, 0.5 hr): 91.9%
Production rate of Alvocidib (pH6.0, 1 hr): 6.4%
Residual rate (pH6.0, 1 hr): 85.6%
Production rate of Alvocidib (pH6.0, 2 hr): 12.0%
Residual rate (pH6.0, 2 hr): 72.4%
Production rate of Alvocidib (pH6.0, 3 hr): 16.6%
Residual rate (pH6.0, 3 hr): 61.7%
Production rate of Alvocidib (pH6.5, 0 hr): 0.5%
Residual rate (pH6.5, 0 hr): 99.3%
Production rate of Alvocidib (pH6.5, 0.5 hr): 9.0%
Residual rate (pH6.5, 0.5 hr): 79.5%
Production rate of Alvocidib (pH6.5, 1 hr): 15.1%
Residual rate (pH6.5, 1 hr): 65.1%
Production rate of Alvocidib (pH6.5, 2 hr): 26.1%
Residual rate (pH6.5, 2 hr): 39.7%
Production rate of Alvocidib (pH6.5, 3 hr): 32.7%
Residual rate (pH6.5, 3 hr): 24.9%
Production rate of Alvocidib (pH7.0, 0 hr): 0.6%
Residual rate (pH7.0, 0 hr): 98.8%
Production rate of Alvocidib (pH7.0, 0.5 hr): 21.3%
Residual rate (pH7.0, 0.5 hr): 51.3%
Production rate of Alvocidib (pH7.0, 1 hr): 31.6%
Residual rate (pH7.0, 1 hr): 27.7%
Production rate of Alvocidib (pH7.0, 2 hr): 41.1%
Residual rate (pH7.0, 2 hr): 0.0%
Production rate of Alvocidib (pH7.0, 3 hr): 43.3%
Residual rate (pH7.0, 3 hr): 0.0%
Production rate of Alvocidib (pH7.4, 0 hr): 0.8%
Residual rate (pH7.4, 0 hr): 98.4%
Conversion to Alvocidib at pH 7.4: rapidly converted to Alvocidib
Production rate of Alvocidib (pH7.4, 0.5 hr): 34.8%
Residual rate (pH7.4, 0.5 hr): 21.5%
Production rate of Alvocidib (pH7.4, 1 hr): 42.0%
Residual rate (pH7.4, 1 hr): 0.0%
Production rate of Alvocidib (pH7.4, 2 hr): 44.6%
Residual rate (pH7.4, 2 hr): 0.0%
Production rate of Alvocidib (pH7.4, 3 hr): 44.6%
Residual rate (pH7.4, 3 hr): 0.0%
